SMILES strings stand for the structures.

One experiment deals with LoVo. The experiment in a line: Cytotoxicity against human LoVo cells. It is filed as functional, cell-based.
For a further experiment, the system named is KB. The experiment in a line: Cytotoxicity against human KB cells. It is filed as functional, cell-based.

In the case of `CO[C@@H]1[C@@H](OC)[C@@H](O)[C@H](O[C@H]2C[C@@]3(O)CC(=O)O[C@](C)(CC/C=C/C=C/Br)C[C@@H](O)[C@H](C)CC[C@H](O3)[C@@H]2C)O[C@H]1C` [LYNGBYALOSIDE B], the IC50 (as a rule, the concentration at which inhibition is half-maximal) was determined as 15 µM in the experiment on LoVo and 4.3 µM with KB.

These data come from ChEMBL document CHEMBL1150174, “Lyngbyaloside B, a new glycoside macrolide from a Palauan marine cyanobacterium, Lyngbya sp” (J Nat Prod, 2002).
